Test results reported in ChEMBL document CHEMBL1134311, “Nonsteroidal selective glucocorticoid modulators: the effect of C-5 alkyl substitution on the transcriptional activation/repression profile of 2,5-dihydro-10-methoxy-2,2,4-trimethyl-1H-[1]benzopyrano[3,4-f]quinolines” (J Med Chem, 2001).

Experiments:
Glucocorticoid receptor [1] = target: T1, Glucocorticoid receptor (Homo sapiens, UniProt P04150); test: Effective concentration in HepG2 cells transfected with LUC gene (E-sel-Luc).; type: functional, cell-based
T1 sequence (P04150 whole entry): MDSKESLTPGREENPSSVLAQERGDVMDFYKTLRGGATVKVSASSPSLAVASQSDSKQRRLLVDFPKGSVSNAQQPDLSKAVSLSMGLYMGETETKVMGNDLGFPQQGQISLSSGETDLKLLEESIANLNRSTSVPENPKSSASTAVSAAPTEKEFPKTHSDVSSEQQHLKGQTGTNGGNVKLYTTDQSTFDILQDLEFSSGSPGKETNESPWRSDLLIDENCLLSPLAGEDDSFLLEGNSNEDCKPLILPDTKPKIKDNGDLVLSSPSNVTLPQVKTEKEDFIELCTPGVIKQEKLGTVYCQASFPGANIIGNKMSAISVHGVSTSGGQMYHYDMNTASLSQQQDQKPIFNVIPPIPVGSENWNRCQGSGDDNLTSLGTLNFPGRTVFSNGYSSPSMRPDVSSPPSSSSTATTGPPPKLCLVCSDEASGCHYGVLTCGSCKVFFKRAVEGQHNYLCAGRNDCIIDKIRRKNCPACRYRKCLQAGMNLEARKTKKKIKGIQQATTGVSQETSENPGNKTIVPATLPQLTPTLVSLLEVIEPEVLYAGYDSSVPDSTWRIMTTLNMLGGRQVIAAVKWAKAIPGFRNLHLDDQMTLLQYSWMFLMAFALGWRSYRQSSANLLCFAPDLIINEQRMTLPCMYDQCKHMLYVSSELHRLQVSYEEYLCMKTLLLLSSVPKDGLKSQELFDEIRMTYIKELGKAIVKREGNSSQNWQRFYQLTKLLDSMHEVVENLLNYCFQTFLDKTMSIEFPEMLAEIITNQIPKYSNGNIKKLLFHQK

Glucocorticoid receptor [2] = target: T1, Glucocorticoid receptor; test: The effective concentration in CV-1 cells for glucocorticoid response element activation (GRE).; type: functional, cell-based
Progesterone receptor = target: T2, Progesterone receptor (Homo sapiens, UniProt P06401); test: Binding affinity towards progesterone receptor (PR) by displacing [3H]progesterone.
T2 sequence (P06401 whole entry): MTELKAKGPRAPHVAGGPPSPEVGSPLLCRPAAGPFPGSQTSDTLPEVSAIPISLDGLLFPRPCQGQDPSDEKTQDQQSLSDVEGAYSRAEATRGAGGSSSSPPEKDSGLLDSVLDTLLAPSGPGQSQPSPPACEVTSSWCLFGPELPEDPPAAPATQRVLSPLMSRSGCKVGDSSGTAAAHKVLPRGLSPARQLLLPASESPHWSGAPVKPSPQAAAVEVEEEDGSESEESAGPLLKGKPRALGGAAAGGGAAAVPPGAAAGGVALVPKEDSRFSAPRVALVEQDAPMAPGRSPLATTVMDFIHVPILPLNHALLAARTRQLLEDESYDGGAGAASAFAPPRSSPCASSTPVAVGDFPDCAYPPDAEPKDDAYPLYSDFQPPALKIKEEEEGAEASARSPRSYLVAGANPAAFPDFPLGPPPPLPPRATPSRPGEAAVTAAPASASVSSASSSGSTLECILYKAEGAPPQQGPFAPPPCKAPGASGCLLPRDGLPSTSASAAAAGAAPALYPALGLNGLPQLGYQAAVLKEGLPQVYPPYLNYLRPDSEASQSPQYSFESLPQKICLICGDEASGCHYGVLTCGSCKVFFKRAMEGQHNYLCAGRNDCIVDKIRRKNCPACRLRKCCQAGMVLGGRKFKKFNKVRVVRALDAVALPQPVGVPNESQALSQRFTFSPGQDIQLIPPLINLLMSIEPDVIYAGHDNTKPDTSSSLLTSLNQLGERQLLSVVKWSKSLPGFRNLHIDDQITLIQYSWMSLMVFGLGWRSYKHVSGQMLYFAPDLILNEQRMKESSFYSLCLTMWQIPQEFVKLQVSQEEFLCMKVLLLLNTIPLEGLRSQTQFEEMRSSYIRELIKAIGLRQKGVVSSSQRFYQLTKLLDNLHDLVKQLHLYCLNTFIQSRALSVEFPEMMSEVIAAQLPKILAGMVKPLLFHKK

Glucocorticoid receptor [3] = target: T1, Glucocorticoid receptor; test: Binding affinity towards glucocorticoid receptor (GR) by displacing [3H]dexamethasone

EC50 (Glucocorticoid receptor [1]) [µM] | EC50 (Glucocorticoid receptor [2]) [µM] | Ki (Progesterone receptor) [µM] | Ki (Glucocorticoid receptor [3]) [µM] | Compound
0.0069 | 0.014 | 1.3 | – | C=CCC1Oc2cccc(OC)c2-c2ccc3c(c21)C(C)=CC(C)(C)N3 (single isomer, unassigned; (-)) [AL-43]
> 5 | > 5 | > 5 | – | COc1cccc2c1-c1ccc3c(c1C(CC(=O)N(C)C)O2)C(C)=CC(C)(C)N3 (centres undefined)
0.45 | 0.52 | > 5 | 0.15 | C=CCC1Oc2cccc(OC)c2-c2ccc3c(c21)C(C)=CC(C)(C)N3 (stereo in doubt; 37) [AL-43]
0.09 | 0.264 | > 5 | – | CCC1Oc2cccc(OC)c2-c2ccc3c(c21)C(C)=CC(C)(C)N3 (centres undefined)
0.039 | 0.146 | > 5 | – | COc1cccc2c1-c1ccc3c(c1C(C(C)C)O2)C(C)=CC(C)(C)N3 (centres undefined)
> 5 | > 5 | > 5 | > 5 | COc1cccc2c1-c1ccc3c(c1C(CC(=O)O)O2)C(C)=CC(C)(C)N3 (centres undefined)
0.07 | 0.075 | > 5 | 0.005 | CCCC1Oc2cccc(OC)c2-c2ccc3c(c21)C(C)=CC(C)(C)N3 (centres undefined)
> 5 | > 5 | > 5 | 3.2 | CNC(=O)CC1Oc2cccc(OC)c2-c2ccc3c(c21)C(C)=CC(C)(C)N3 (centres undefined)
– | – | > 5 | – | COc1cccc2c1-c1ccc3c(c1C(C1CCCC1)O2)C(C)=CC(C)(C)N3 (centres undefined)
– | – | > 5 | – | COc1cccc2c1-c1ccc3c(c1C(C1CCCCC1)O2)C(C)=CC(C)(C)N3 (centres undefined)
0.144 | 0.4 | 2.1 | 0.009 | C/C=C/C1Oc2cccc(OC)c2-c2ccc3c(c21)C(C)=CC(C)(C)N3 (centres undefined)
> 5 | > 5 | > 5 | – | COc1cccc2c1-c1ccc3c(c1CO2)C(C)=CC(C)(C)N3
0.027 | 0.034 | 0.76 | – | C#CCC1Oc2cccc(OC)c2-c2ccc3c(c21)C(C)=CC(C)(C)N3 (centres undefined)
– | – | > 5 | – | COc1cccc2c1-c1ccc3c(c1C(CCO)O2)C(C)=CC(C)(C)N3 (centres undefined)
– | – | > 5 | – | COc1cccc2c1-c1ccc3c(c1C(CCN(C)C)O2)C(C)=CC(C)(C)N3 (centres undefined)
> 5 | > 5 | > 5 | > 5 | COc1cccc2c1-c1ccc3c(c1C(C(N)=O)O2)C(C)=CC(C)(C)N3 (centres undefined)
0.022 | 0.078 | > 5 | 0.0081 | C=CCCC1Oc2cccc(OC)c2-c2ccc3c(c21)C(C)=CC(C)(C)N3 (centres undefined)
– | – | > 5 | – | COc1cccc2c1-c1ccc3c(c1C(Cc1ccccc1)O2)C(C)=CC(C)(C)N3 (centres undefined)
0.069 | 0.223 | > 5 | 0.0095 | COc1cccc2c1-c1ccc3c(c1C(CC(C)C)O2)C(C)=CC(C)(C)N3 (centres undefined)
0.013 | 0.033 | 1.8 | 0.0025 | C=CCC1Oc2cccc(OC)c2-c2ccc3c(c21)C(C)=CC(C)(C)N3 (racemic) [AL-43]
0.168 | 0.46 | – | – | C/C=C\C1Oc2cccc(OC)c2-c2ccc3c(c21)C(C)=CC(C)(C)N3 (centres undefined)
0.004 | 0.009 | > 5 | – | COc1cccc2c1-c1ccc3c(c1C(c1cccc(OCSC)c1)O2)C(C)=CC(C)(C)N3 (centres undefined)
